Results taken from patent US12534465B2, “5H-pyrrolo[3,2-d]pyrimidine-2,4-diamino compounds and antibody conjugates thereof” (SUTRO BIOPHARMA, INC., priority 2019, dated 2026).

Key:
mouse TLR7 [1] = target: T1, mouse TLR7 (Mus musculus, UniProt P58681); test: HEK293-mouseTLR7 SEAP reporter assay (Example 8); format: cell-based; conditions: HEK293-mTLR7 SEAP reporter cells, 24 hrs
T1 construct: host or cells: HEK293
T1 sequence (P58681 27-1050): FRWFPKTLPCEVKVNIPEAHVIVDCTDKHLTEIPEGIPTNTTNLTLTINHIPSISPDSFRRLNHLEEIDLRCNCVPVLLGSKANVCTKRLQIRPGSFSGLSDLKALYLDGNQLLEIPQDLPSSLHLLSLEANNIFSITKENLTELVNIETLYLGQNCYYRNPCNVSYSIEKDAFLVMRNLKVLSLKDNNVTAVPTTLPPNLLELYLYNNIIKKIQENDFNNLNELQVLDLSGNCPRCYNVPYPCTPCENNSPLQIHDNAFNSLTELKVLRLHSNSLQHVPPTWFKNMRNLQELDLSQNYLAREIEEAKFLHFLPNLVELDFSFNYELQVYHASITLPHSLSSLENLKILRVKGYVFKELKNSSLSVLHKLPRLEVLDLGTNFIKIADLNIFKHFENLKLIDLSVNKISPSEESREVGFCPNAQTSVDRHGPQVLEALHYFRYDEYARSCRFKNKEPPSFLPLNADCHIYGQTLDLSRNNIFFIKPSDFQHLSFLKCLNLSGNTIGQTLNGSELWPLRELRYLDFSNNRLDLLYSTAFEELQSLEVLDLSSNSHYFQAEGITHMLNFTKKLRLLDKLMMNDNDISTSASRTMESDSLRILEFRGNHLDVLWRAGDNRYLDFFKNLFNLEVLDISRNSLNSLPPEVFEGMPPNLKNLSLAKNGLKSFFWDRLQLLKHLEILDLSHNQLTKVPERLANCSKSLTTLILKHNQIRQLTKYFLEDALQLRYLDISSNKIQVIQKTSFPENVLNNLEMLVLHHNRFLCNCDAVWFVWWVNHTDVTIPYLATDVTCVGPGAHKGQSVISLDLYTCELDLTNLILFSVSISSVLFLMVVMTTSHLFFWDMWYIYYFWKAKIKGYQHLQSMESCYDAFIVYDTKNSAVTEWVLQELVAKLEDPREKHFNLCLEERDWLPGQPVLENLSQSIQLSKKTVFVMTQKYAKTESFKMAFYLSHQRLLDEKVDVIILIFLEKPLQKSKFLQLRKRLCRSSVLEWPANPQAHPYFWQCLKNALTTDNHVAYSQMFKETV
Description: In this example, the in vitro activity of compounds to activate human TLR7 (or human TLR8 or mouse TLR7) pathway was evaluated on HEK293 reporter cells transfected with human TLR7 (or human TLR8 or mouse TLR7) and an inducible SEAP (secreted embryonic alkaline phosphatase) reporter gene. The SEAP reporter gene is placed under the control of the IFN-β minimal promoter fused to five NF-κB and AP-1-binding sites. Stimulation with a TLR7 agonist activates NF-κB and AP-1 which induces the production of SEAP. Levels of SEAP were determined by HEK-Blue Detection medium.
The in vitro activity of compounds on TLR7 (human and mouse) and TLR8 (human only) reporter cell lines was assessed as follows. 5-(2-methoxy-4-(piperazin-1-ylmethyl)benzyl)-N4-pentyl-5H-pyrrolo[3,2-d]pyrimidine-2,4-diamine (Compound 1) is a compound used for comparison and has the structure shown below:
HEK293-humanTLR7 (hTLR7), HEK293-mouseTLR7 (mTLR7) and HEK293-humanTLR8 (hTLR8) reporter cell lines were purchased from Invivogen and cell lines were maintained in the manufacturer's recommended culture medium with required supplemental antibiotics. On the day of assay, the cells were harvested with Accutase and counted by the Vi-CELL Cell Viability Analyzers. Cells were resuspended in HEK blue detection medium and a total of 10,000 cells were seeded in each well of a 384-well flat bottom plate. Serial dilutions of test compounds (1:4 serial dilution starting from 5 μM) were added into treatment wells and assay plates were cultured at 37° C. in a CO2 incubator for 24 hrs. The plates were then read by spectrophotometry at 640 nm. Data was fitted with non-linear regression analysis, using a log(inhibitor) vs. response-variable slope, 3-parameter fit with GraphPad Prism. There result was reported in Table 1 as EC50 (the midpoint of the curve, or concentration at which 50% of the maximum effect was observed).

mouse TLR7 [2] = target: T1, mouse TLR7; test: HEK293 SEAP reporter assay, TLR panel (Example 10); format: cell-based; conditions: 16 hrs
Text: In this example, the activity of the compound 10 to stimulate different human and mouse TLR pathways was investigated on HEK293 cells transfected with inducible SEAP (secreted embryonic alkaline phosphatase) reporter genes and also expressing different human TLRs (TLR2, TLR3, TLR4, TLR5, TLR7, TLR8, TLR9) or mouse TLRs (TLR2, TLR3, TLR4, TLR5, TLR7, TLR8, TLR13).
HEK293 reporter cell lines were purchased from Invivogen and cell lines were maintained in manufacture recommended culture medium with required supplemental antibiotics. On the day of assay, the cells were harvested with Accutase and counted by the Vi-CELL Cell Viability Analyzers. Cells were resuspended in HEK blue detection medium and a total of 10000 cells were seeded in each well of a 384-well flat bottom plate. Serial dilutions of compound 10 and compound 1 was added into treatment wells. Assay plates were cultured at 37° C. in a CO2 incubator for 16 hrs. HEK-Blue™ Detection medium changes to a purple/blue color in the presence of secreted SEAP, which can be detected by spectrophotometry at 620-655 nm. Data was fitted with non-linear regression analysis, using a log(inhibitor) vs. response-variable slope, 3-parameter fit with GraphPad Prism.

Row | Compound | EC50 (mouse TLR7 [1]) [nM] | EC50 (mouse TLR7 [2]) [nM]
1 | CCCCCNc1nc(N)nc2ccn(Cc3ccc(CN4CCNCC4)cc3OC)c12 [Compound 1, 5-(2-methoxy-4-(piperazin-1-ylmethyl)benzyl)-N4-pentyl-5H-pyrrolo[3,2-d]pyrimidine-2,4-diamine, reference compound] | 4.6 | 2.6
2 | CCCCCNc1nc(N)nc2ccn(Cc3ccc(CN4CC(NC)C4)cc3OC)c12 [Compound 2, 5-(2-methoxy-4-((3-(methylamino)azetidin-1-yl)methyl)benzyl)-N4-pentyl-5H-pyrrolo[3,2-d]pyrimidine-2,4-diamine] | 10.2 | –
3 | CCCCCNc1nc(N)nc2ccn(Cc3ccc(CN4CC5(CNCCO5)C4)cc3OC)c12 [Compound 10, 5-[[2-methoxy-4-(5-oxa-2,8-diazaspiro[3.5]nonan-2-ylmethyl)phenyl]methyl]-N4-pentyl-pyrrolo[3,2-d]pyrimidine-2,4-diamine] | 3.7 | 22.9
